Data: patent publication US5721234A, “Glutamate receptor antagonists: fused cycloalkylouinoxalinediones” (Warner-Lambert Company, priority 1995, dated 1998)
Where a name gives a salt, the structure may show the parent alone.

Columns and labels:
[1] = target: AMPA receptors; test: AMPA receptor binding affinity (Honore et al.)
[2] = target: kainate site (non-NMDA receptor); test: Kainate site (non-NMDA receptor) binding affinity (London and Coyle)
[3] = target: T1, glycine site of the NMDA receptor (Rattus norvegicus, UniProt P35439); test: Glycine site of the NMDA receptor binding affinity (Jones et al.)
T1 construct: from tissue

[4] = tested on: AMPA-induced neuronal damage in primary cortical neuronal cultures; test: AMPA-induced neuronal damage in primary cortical neuronal cultures, LDH release; format: cell-based; details: Table 1, cyclohexyl-fused analogs, long-term exposure to 100 μM AMPA
Method: To functionally measure AMPA antagonist activity, the effects of the agent on AMPA-induced neuronal damage in primary cortical neuronal cultures was examined using techniques similar to those outlined by Koh, J.-Y. et al., J. Neurosci, 1990; 10:693. The neuronal damage produced by long-term exposure to 100 μM AMPA was measured by the release of the cytosolic enzyme lactate dehydrogenase (LDH).
Selected compounds of the present invention were tested by one or more of the above-described assays. The IC50 values set forth in Tables 1 and 2 are a measure of the concentration (μM) of the test substance which inhibits 50% of an induced release from the tested receptors.

[5] = Table 1, cyclohexyl-fused analogs
[6] = Table 2, cyclopentyl-fused analogs

Compound	IC50 [1, 6] [µM]	IC50 [2, 6] [µM]	also measured
O=c1[nH]c2cc(Br)c3c(c2[nH]c1=O)CC(O)CC3 (stereo not drawn) [Example 7, 6-bromo-9-hydroxy-1,4,7,8,9,10-hexahydro-benzo[f]quinoxaline-2,3-dione]			IC50 [1, 5]: 17 µM; IC50 [2, 5]: 3 µM; IC50 [3, 5]: 1.5 µM
O=c1[nH]c2cc(Br)c3c(c2[nH]c1=O)CC(OCc1ccccc1)CC3 (stereo not drawn) [Example 8, 9-benzyloxy-6-bromo-1,4,7,8,9,10-hexahydro-benzo[f]quinoxaline-2,3-dione]			IC50 [1, 5]: 14 µM; IC50 [2, 5]: > 100 µM
O=c1[nH]c2cc(Br)c3c(c2[nH]c1=O)CC(NCc1ccccc1)CC3 (stereo not drawn) [Example 19, 9-benzylamino-6-bromo-1,4,7,8,9,10-hexahydro-benzo[f]quinoxaline-2,3-dione]			IC50 [1, 5]: 25 µM; IC50 [2, 5]: > 100 µM; IC50 [3, 5]: > 100 µM
CC(=O)NC1Cc2cc(Br)c3[nH]c(=O)c(=O)[nH]c3c2C1 (stereo not drawn) [Example 28, N-(5-bromo-2,3-dioxo-2,3,4,7,8,9-hexahydro-1H-cyclopenta[f]quinoxalin-8-yl)-acetamide]	> 100	> 100	
CC(=O)NC1Cc2c([N+](=O)[O-])c(Br)c3[nH]c(=O)c(=O)[nH]c3c2C1 (stereo not drawn) [Example 29, N-(5-bromo-6-nitro-2,3-dioxo-2,3,4,7,8,9-hexahydro-1H-cyclopenta[f]quinoxalin-8-yl)acetamide]	5.1		
CC(=O)NC1Cc2ccc3[nH]c(=O)c(=O)[nH]c3c2C1 (stereo not drawn) [Example 30, N-(2,3-dioxo-2,3,4,7,8,9-hexahydro-1H-cyclopenta[f]quinoxalin-8-yl)-acetamide]	25	87	
CC(=O)NC1Cc2c([N+](=O)[O-])cc3[nH]c(=O)c(=O)[nH]c3c2C1 (stereo not drawn) [Example 32, N-(6-nitro-2,3-dioxo-2,3,4,7,8,9-hexahydro-1H-cyclopenta[f]quinoxalin-8-yl)-acetamide]	0.4	0.9	IC50 [3, 6]: 1.3 µM
O=C(NC1Cc2c([N+](=O)[O-])cc3[nH]c(=O)c(=O)[nH]c3c2C1)C1CCNCC1 (stereo not drawn) [Example 35, 4-(6-nitro-2,3-dioxo-2,3,4,7,8,9-hexahydro-1H-cyclopenta[f]quinoxalin-8-ylcarbamoyl)piperidine hydrochloride]	0.12	0.28	IC50 [3, 6]: < 1 µM
O=C(NC1CCc2c([N+](=O)[O-])cc3[nH]c(=O)c(=O)[nH]c3c2C1)C1CCCCC1 (stereo not drawn) [Example 37, N-(6-nitro-2,3-dioxo-1,2,3,4,7,8,9,10-octahydrobenzo[f]quinoxalin9-yl)cyclohexylamide]			IC50 [3, 5]: 0.5 µM; IC50 [4]: 28 µM
NC1Cc2c([N+](=O)[O-])cc3[nH]c(=O)c(=O)[nH]c3c2C1 (stereo not drawn) [Example 38, 8-amino-6-nitro-4,7,8,9-tetrahydro-1H-cyclopenta[f]quinoxaline-2,3-dione hydrochloride]	2.6	2.1	
O=C(CCc1ccc(O)cc1)NC1CCc2c([N+](=O)[O-])cc3[nH]c(=O)c(=O)[nH]c3c2C1 (stereo not drawn) [Example 41, 2-(6-nitro-2,3-dioxo-1,2,3,4,7,8,9,10-octahydrobenzo[f]quinoxaline-9-ylcarbamoyl)ethyl-(4-hydroxy)benzene]			IC50 [3, 5]: > 1 µM
O=C(Nc1ccccc1)NC1CCc2c([N+](=O)[O-])cc3[nH]c(=O)c(=O)[nH]c3c2C1 (stereo not drawn) [Example 42, N-phenyl-N'-(6-nitro-2,3-dioxo-1,2,3,4,7,8,9,10-octahydrobenzo[f]quinoxalin-9-yl)urea]			IC50 [1, 5]: 0.15 µM; IC50 [2, 5]: 0.83 µM; IC50 [3, 5]: 0.18 µM
CNC1CCc2c([N+](=O)[O-])cc3[nH]c(=O)c(=O)[nH]c3c2C1 (stereo not drawn) [Example 52, 9-Methylamino-6-nitro-1,4,7,8,9,10-hexahydrobenzo[f]quinoxaline-2,3-dione]			IC50 [1, 5]: 0.79 µM; IC50 [2, 5]: 2.8 µM; IC50 [3, 5]: > 1 µM
CN(C(=O)c1ccccc1)C1CCc2c([N+](=O)[O-])cc3[nH]c(=O)c(=O)[nH]c3c2C1 (stereo not drawn) [Example 53, N-Methyl-N-(6-nitro-2,3-dioxo-1,2,3,4,7,8,9,10-octahydro-benzo[f]quinoxalin-9-yl)-benzamide]			IC50 [1, 5]: 1.1 µM; IC50 [2, 5]: 1.6 µM
O=C(NC1Cc2c([N+](=O)[O-])cc3[nH]c(=O)c(=O)[nH]c3c2C1)c1cccs1 (stereo not drawn) [Example 54, Thiophene-2-carboxylic acid (6-nitro-2,3-dioxo-2,3,4,7,8,9-hexahydro-1H-cyclopenta[f]quinoxaline-8-yl)-amide]	0.05	0.18	IC50 [3, 6]: 0.3 µM
O=C(NC1Cc2c([N+](=O)[O-])cc3[nH]c(=O)c(=O)[nH]c3c2C1)c1ccccn1 (stereo not drawn) [Example 62, Pyridine-2-carboxylic acid (6-nitro-2,3-dioxo-2,3,4,7,8,9-hexahydro-1H-cyclopenta[f]quinoxalin-8-yl)-amide]	0.56	1.9	IC50 [3, 6]: > 1 µM

Compound	IC50 [1, 6] [µM]	IC50 [2, 6] [µM]	also measured
O=C(NC1Cc2c([N+](=O)[O-])cc3[nH]c(=O)c(=O)[nH]c3c2C1)C1CCCN1 (stereo not drawn) [Example 64, Pyrrolidine-2-carboxylic acid (6-nitro-2,3-dioxo-2,3,4,7,8,9-hexahydro-1H-cyclopenta[f]quinoxalin-8-yl)-amide]	0.64	0.86	IC50 [3, 6]: > 1 µM
O=C(NC1Cc2c([N+](=O)[O-])cc3[nH]c(=O)c(=O)[nH]c3c2C1)c1cc2ccccc2s1 (stereo not drawn) [Example 65, Benzo[b]thiophene-2-carboxylic acid (6-nitro-2,3,-dioxo-2,3,4,7,8,9-hexahydro-1H-cyclopenta[f]quinoxalin-8-yl)-amide]	1.3	8.1	
CN(C(=O)c1cccs1)C1Cc2c([N+](=O)[O-])cc3[nH]c(=O)c(=O)[nH]c3c2C1 (stereo not drawn) [Example 67, Thiophene-2-carboxylic acid methyl-(6-nitro-2,3-dioxo-2,3,4,7,8,9-hexahydro-1H-cyclopenta[f]quinoxalin-8-yl)-amide]	3.6	1.6	
CN(C(=O)c1ccccc1)C1Cc2c([N+](=O)[O-])cc3[nH]c(=O)c(=O)[nH]c3c2C1 (stereo not drawn) [Example 68, N-Methyl-N-(6-nitro-2,3-dioxo-2,3,4,7,8,9-hexahydro-1H-cyclopenta[f]quinoxalin-8-yl)-benzamide]	7.4	1.9	
CN(C(=O)C1Cc2c([N+](=O)[O-])cc3[nH]c(=O)c(=O)[nH]c3c2C1)c1ccccc1 (stereo not drawn) [Example 69, 6-Nitro-2,3-dioxo-2,3,4,7,8,9-hexahydro-1H-cyclopenta[f]quinoxaline-8-carboxylic acid methyl-phenyl-amide]	0.42	1.6	IC50 [3, 6]: > 100 µM
O=C(O)C1Cc2c([N+](=O)[O-])cc3[nH]c(=O)c(=O)[nH]c3c2C1 (stereo not drawn) [Example 78, 6-Nitro-2,3,-dioxo-2,3,4,7,8,9-hexahydro-1H-cyclopenta[f]quinoxaline-8-carboxylic acid]	0.42	1.9	IC50 [3, 6]: 14 µM
O=C(Nc1ccccc1)C1Cc2c([N+](=O)[O-])cc3[nH]c(=O)c(=O)[nH]c3c2C1 (stereo not drawn) [Example 80, 6-Nitro-2,3,-dioxo-2,3,4,7,8,9-hexahydro-1H-cyclopenta[f]quinoxaline-8-carboxylic acid phenylamide]	1.6	3.9	
O=c1[nH]c2cc([N+](=O)[O-])c3c(c2[nH]c1=O)CC(N1CCCC1)CC3 (stereo not drawn) [Example 86, 6-Nitro-9-pyrrolidin-1-yl-1,4,7,8,9,10-hexahydro-benzo[f]quinoxaline-2,3-dione]			IC50 [1, 5]: 2.2 µM; IC50 [2, 5]: 3.8 µM
CN(C)C1Cc2c([N+](=O)[O-])cc3[nH]c(=O)c(=O)[nH]c3c2C1 (stereo not drawn) [Example 90, 8-Dimethylamino-6-nitro-4,7,8,9-tetrahydro-1H-cyclopenta[f]quinoxaline-2,3-dione]	0.91	2.6	IC50 [3, 6]: 12 µM
CNC1Cc2c([N+](=O)[O-])cc3[nH]c(=O)c(=O)[nH]c3c2C1 (stereo not drawn) [Example 100, 8-Methylamino-6-nitro-4,7,8,9-tetrahydro-1H-cyclopenta[f]quinoxaline-2,3-dione methane sulfonate salt]	1.2	2.2	
O=C(CN(CCO)CCO)NC1Cc2c([N+](=O)[O-])cc3[nH]c(=O)c(=O)[nH]c3c2C1 (stereo not drawn) [Example 101, 2-[Bis-(2-hydroxy-ethyl)-amino]-N-(6-nitro-2,3-dioxo-2,3,4,7,8,9-hexahydro-1H-cyclopenta[f]quinoxalin-8-yl)-acetamide]	1.1	1.4	
O=c1[nH]c2cc([N+](=O)[O-])c3c(c2[nH]c1=O)CC(N1CCCC1)C3 (stereo not drawn) [Example 104, 6-Nitro-8-pyrrolidin-1-yl-4,7,8,9-tetrahydro-1H-cyclopenta[f]quinoxaline-2,3-dione]	1.5	2.2	
CC(=O)N(C)C1Cc2c([N+](=O)[O-])cc3[nH]c(=O)c(=O)[nH]c3c2C1 (stereo not drawn) [Example 105, N-Methyl-N-(6-nitro-2,3,-dioxo-2,3,4,7,8,9-hexahydro-1H-cyclopenta[f]quinoxaline-8-yl)acetamide]	2.2	2.2	
O=c1[nH]c2cc([N+](=O)[O-])c3c(c2[nH]c1=O)CC(N1CCCCC1)C3 (stereo not drawn) [Example 108, 6-Nitro-8-piperidin-1-yl-4,7,8,9-tetrahydro-1H-cyclopenta[f]quinoxaline-2,3-dione]	3.4	1.6	
CCN(CC)C1Cc2c([N+](=O)[O-])cc3[nH]c(=O)c(=O)[nH]c3c2C1 (stereo not drawn) [Example 109, 8-Diethylamino-6-nitro-4,7,8,9,-tetrahydro-1H-cyclopenta[f]quinoxaline-2,3-dione]	5.1	5.4	
